Laboratory results: patent US8685977B2, “Chemical compounds” (Pfizer Limited, priority 2010, dated 2014)

Target: T1, Nav1.7 (or SCN9A) channel (Homo sapiens, UniProt Q15858)
T1 construct: expressed in transfected cells
Experiment: Nav1.7 PatchXpress 7000 automated electrophysiology assay (HEK cells stably expressing hSCN9A)
Assay type: cell-based
Conditions: voltage-clamped at V1/2 of inactivation, read-out: Nav1.7 EIC50
Description: The ability of the compounds of formula (I) to block the Nav1.7 (or SCN9A) channel was measured using the assays described below.
Human Embryonic Kidney (HEK) cells were transfected with an hSCN9A construct using lipofectamine reagent (Invitrogen), using standard techniques. Cells stably expressing the hSCN9A constructs were identified by their resistance to G-418 (400 μg/ml). Clones were screened for expression using the whole-cell voltage-clamp technique.
HEK cells stably transfected with hSCN9A were maintained in DMEM medium supplemented with 10% heat-inactivated fetal bovine serum and 400 μg/ml G-418 in an incubator at 37° C. with a humidified atmosphere of 10% CO2. For HTS, cells were harvested from flasks by trypsinization and replated in an appropriate multi-well plate (typically 96 or 384 wells/plate) such that confluence would be achieved within 24 hours of plating. For electrophysiological studies, cells were removed from the culture flask by brief trypsinization and re-plated at low density onto glass cover slips. Cells were typically used for electrophysiological experiments within 24 to 72 hours after plating.
Cover slips containing HEK cells expressing hSCN9A were placed in a bath on the stage of an inverted microscope and perfused (approximately 1 ml/minutes) with extracellular solution of the following composition: 138 mM NaCl, 2 mM CaCl2, 5.4 mM KCl, 1 mM MgCl2, 10 mM glucose, and 10 mM HEPES, pH 7.4, with NaOH. […] The osmolarity of the extracellular and intracellular solutions was 300 mOsm/kg and 295 mOsm/kg, respectively. All recordings were made at room temperature (22-24° C.) using AXOPATCH 200B amplifiers and PCLAMP software (Axon Instruments, Burlingame, Calif.).
HEK cells stably transfected with hSCN9A were viewed under Hoffman contrast optics and placed in front of an array of flow pipes emitting either control or compound-containing extracellular solutions. All compounds were dissolved in dimethyl sulfoxide to make 10 mM stock solutions, which were then diluted into extracellular solution to attain the final concentrations desired. […] The voltage-dependence of inactivation was determined by applying a series of depolarizing prepulses (8 sec long in 10 mV increments) from a negative holding potential. The voltage was then immediately stepped to 0 mV to assess the magnitude of the sodium current. Currents elicited at 0 mV were plotted as a function of prepulse potential to allow estimation of the voltage at which 50% of the channels were inactivated (midpoint of inactivation or V1/2). Compounds were tested for their ability to inhibit hSCN9A sodium channels by activating the channel with a 20 msec voltage step to 0 mV following an 8 second conditioning prepulse to the empirically determined V1/2. Compound effect (% inhibition) was determined by difference in current amplitude before and after application of test compounds. For ease of comparison, “estimated IC-50” (EIC50) values were calculated from single point electrophysiology data by the following equation, (tested concentration, uM)×(100-% inhibition/% inhibition). Inhibition values <20% and >80% were excluded from the calculation.
Electrophysiological assays were conducted with PatchXpress 7000 hardware and associated software (Molecular Devices Corp). All assay buffers and solutions were identical to those used in conventional whole-cell voltage clamp experiments described above. hSCN9A cells were grown as above to 50%-80% confluency and harvested by trypsinization. Trypsinized cells were washed and resuspended in extracellular buffer at a concentration of 1×10^6 cells/ml. The onboard liquid handling facility of the PatchXpress was used for dispensing cells and application of test compounds. Determination of the voltage midpoint of inactivation was as described for conventional whole-cell recordings. Cells were then voltage-clamped to the empirically determined V1/2 and current was activated by a 20 msec voltage step to 0 mV. […]

T1 sequence (Q15858 whole entry): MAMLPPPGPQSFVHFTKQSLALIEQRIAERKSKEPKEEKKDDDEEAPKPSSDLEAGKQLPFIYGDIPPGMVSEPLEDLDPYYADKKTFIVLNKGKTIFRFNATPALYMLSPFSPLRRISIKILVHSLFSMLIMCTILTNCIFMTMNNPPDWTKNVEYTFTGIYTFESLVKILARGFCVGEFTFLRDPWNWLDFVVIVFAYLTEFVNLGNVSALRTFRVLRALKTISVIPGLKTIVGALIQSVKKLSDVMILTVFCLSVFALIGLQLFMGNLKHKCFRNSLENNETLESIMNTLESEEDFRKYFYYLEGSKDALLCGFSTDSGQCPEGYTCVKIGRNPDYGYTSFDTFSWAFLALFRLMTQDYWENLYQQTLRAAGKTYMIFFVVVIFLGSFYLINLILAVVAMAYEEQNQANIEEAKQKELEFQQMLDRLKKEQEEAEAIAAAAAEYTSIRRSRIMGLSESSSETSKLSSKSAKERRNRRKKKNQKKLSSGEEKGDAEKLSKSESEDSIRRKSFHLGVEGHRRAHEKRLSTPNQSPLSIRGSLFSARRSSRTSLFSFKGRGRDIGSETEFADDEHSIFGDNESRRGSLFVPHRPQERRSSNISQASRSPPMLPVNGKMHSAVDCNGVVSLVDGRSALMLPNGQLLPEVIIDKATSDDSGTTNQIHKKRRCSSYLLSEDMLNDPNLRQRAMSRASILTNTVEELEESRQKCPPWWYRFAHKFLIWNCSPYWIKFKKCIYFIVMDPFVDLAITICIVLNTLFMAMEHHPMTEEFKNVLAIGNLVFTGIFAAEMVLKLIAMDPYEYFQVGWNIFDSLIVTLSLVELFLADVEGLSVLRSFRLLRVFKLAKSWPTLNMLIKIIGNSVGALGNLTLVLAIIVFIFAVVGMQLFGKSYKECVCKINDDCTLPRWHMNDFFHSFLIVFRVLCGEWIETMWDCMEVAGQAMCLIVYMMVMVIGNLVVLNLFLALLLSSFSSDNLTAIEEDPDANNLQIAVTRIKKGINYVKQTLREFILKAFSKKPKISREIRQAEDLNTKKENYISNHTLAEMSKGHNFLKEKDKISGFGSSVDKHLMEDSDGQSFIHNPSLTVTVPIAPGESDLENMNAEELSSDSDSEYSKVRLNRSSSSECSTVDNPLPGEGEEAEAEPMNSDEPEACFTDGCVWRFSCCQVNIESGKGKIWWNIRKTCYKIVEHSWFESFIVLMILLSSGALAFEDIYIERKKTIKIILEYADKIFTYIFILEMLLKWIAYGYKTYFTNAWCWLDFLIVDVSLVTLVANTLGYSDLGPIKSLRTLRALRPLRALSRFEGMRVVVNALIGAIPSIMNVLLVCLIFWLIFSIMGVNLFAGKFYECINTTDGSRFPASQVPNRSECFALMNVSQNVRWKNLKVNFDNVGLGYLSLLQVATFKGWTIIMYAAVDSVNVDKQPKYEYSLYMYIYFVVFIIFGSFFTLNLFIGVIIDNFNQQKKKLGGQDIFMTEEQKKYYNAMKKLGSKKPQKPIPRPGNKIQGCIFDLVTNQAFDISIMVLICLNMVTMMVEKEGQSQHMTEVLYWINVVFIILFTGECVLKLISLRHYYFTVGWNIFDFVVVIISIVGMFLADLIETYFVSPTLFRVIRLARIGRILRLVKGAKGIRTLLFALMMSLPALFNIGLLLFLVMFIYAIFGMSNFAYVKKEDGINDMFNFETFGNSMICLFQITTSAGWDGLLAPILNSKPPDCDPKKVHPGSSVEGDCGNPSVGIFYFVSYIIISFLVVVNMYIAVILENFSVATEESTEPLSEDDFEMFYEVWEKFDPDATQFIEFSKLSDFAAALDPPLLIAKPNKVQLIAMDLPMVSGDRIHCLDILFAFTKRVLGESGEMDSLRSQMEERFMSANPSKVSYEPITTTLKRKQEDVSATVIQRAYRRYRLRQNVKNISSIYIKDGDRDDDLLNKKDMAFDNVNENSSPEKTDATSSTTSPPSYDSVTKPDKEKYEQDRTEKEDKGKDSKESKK

| IC50 [nM] | SMILES |
| --- | --- |
| 7000 | CS(=O)(=O)NC(=O)c1cc(F)c(Oc2cc(F)cc(F)c2F)cc1F [Example 97, 2,5-difluoro-N-(methylsulfonyl)-4-(2,3,5-trifluorophenoxy)benzamide] |
| > 3000 | CS(=O)(=O)NC(=O)c1cc(F)c(Oc2ccc(F)cc2C#N)cc1F [Example 130, 4-(2-cyano-4-fluorophenoxy)-2,5-difluoro-N-(methylsulfonyl)benzamide] |
| > 1000 | COc1ccc(C)cc1Oc1cc(F)c(C(=O)NS(C)(=O)=O)cc1F [Example 86, 2,5-difluoro-4-(2-methoxy-5-methylphenoxy)-N-(methylsulfonyl)benzamide] |
| 8700 | Cc1ccc(Oc2ccc(C(=O)NS(C)(=O)=O)cc2)cc1 [Example 304, 4-(4-methylphenoxy)-N-(methylsulfonyl)benzamide] |
| > 10000 | CS(=O)(=O)NC(=O)c1ccc(Oc2ccccc2F)cc1 [Example 171, 4-(2-fluorophenoxy)-N-(methylsulfonyl)benzamide] |
| 340 | CS(=O)(=O)NC(=O)c1cc(F)c(Oc2ccc(OC(F)(F)F)c(Cl)c2)cc1F [Example 55, 4-(3-chloro-4-(trifluoromethoxy)phenoxy)-2,5-difluoro-N-(methylsulfonyl)benzamide] |
| 190 | CS(=O)(=O)NC(=O)c1ccc(Oc2ccc(Cl)c(Cl)c2)c(C(F)(F)F)c1 [Example 27, 4-(3,4-dichlorophenoxy)-N-(methylsulfonyl)-3-(trifluoromethyl)benzamide] |
| 1100 | CS(=O)(=O)NC(=O)c1ccc(Oc2cccc(F)c2)c(Cl)c1 [Example 262, 3-chloro-4-(3-fluorophenoxy)-N-(methylsulfonyl)benzamide] |
| 2500 | COc1cc(Cl)ccc1Cc1cc(F)c(C(=O)NS(C)(=O)=O)cc1F [Example 319, 4-(4-Chloro-2-methoxybenzyl)-2,5-difluoro-N-(methylsulfonyl)benzamide] |
| 630 | Cc1cc(C(=O)NS(C)(=O)=O)ccc1Oc1ccc(Cl)cc1 [Example 240, 4-(4-chlorophenoxy)-3-methyl-N-(methylsulfonyl)benzamide] |
| 1700 | CS(=O)(=O)NC(=O)c1ccc(Oc2ccccc2Cl)c(Cl)c1 [Example 248, 3-chloro-4-(2-chlorophenoxy)-N-(methylsulfonyl)benzamide] |
| 420 | Cc1ccc(Oc2cc(F)c(C(=O)NS(C)(=O)=O)cc2Cl)cc1 [Example 291, 5-chloro-2-fluoro-4-(4-methylphenoxy)-N-(methylsulfonyl)benzamide] |
| > 1000 | COc1ccc(Cl)c(Oc2cc(F)c(C(=O)NS(C)(=O)=O)cc2F)c1 [Example 109, 4-(2-chloro-5-methoxyphenoxy)-2,5-difluoro-N-(methylsulfonyl)benzamide] |
| > 3000 | COc1cc(Cl)ccc1Oc1ccc(C(=O)NS(C)(=O)=O)cc1C#N [Example 63, 4-(4-chloro-2-methoxyphenoxy)-3-cyano-N-(methylsulfonyl)benzamide] |
| 5300 | CS(=O)(=O)NC(=O)c1ccc(Oc2ccccc2-c2ccccc2)cc1 [Example 268, 4-(biphenyl-2-yloxy)-N-(methylsulfonyl)benzamide] |
| 5800 | CS(=O)(=O)NC(=O)c1ccc(Oc2ccc(Cl)c(C(F)(F)F)c2)cc1Cl [Example 43, 2-chloro-4-[4-chloro-3-(trifluoromethyl)phenoxy]-N-(methylsulfonyl)benzamide] |
| 25000 | CCS(=O)(=O)NC(=O)c1ccc(Oc2cccc(F)c2)cc1 [Example 306, N-(ethylsulfonyl)-4-(3-fluorophenoxy)benzamide] |
| 1100 | CS(=O)(=O)NC(=O)c1cc(F)c(Oc2ccc(Cl)c(C(F)(F)F)c2)c(F)c1 [Example 45, 4-(4-chloro-3-(trifluoromethyl)phenoxy)-3,5-difluoro-N-(methylsulfonyl)benzamide] |

| IC50 [nM] | SMILES |
| --- | --- |
| > 3000 | Cc1ccc(C)c(Oc2cc(F)c(C(=O)NS(C)(=O)=O)cc2F)c1 [Example 127, 4-(2,5-dimethylphenoxy)-2,5-difluoro-N-(methylsulfonyl)benzamide] |
| > 3000 | CS(=O)(=O)NC(=O)c1ccc(Oc2ccc(-n3ccnc3)cc2)cc1 [Example 311, 4-[4-(1H-imidazol-1-yl)phenoxy]-N-(methylsulfonyl)benzamide] |
| 3300 | CS(=O)(=O)NC(=O)c1ccc(Oc2ccc(C#N)c(C(F)(F)F)c2)cc1 [Example 310, 4-[4-cyano-3-(trifluoromethyl)phenoxy]-N-(methylsulfonyl)benzamide] |
| 2300 | COc1ccc(Cl)cc1Oc1cc(F)c(C(=O)NS(C)(=O)=O)cc1Cl [Example 54, 5-chloro-4-(5-chloro-2-methoxyphenoxy)-2-fluoro-N-(methylsulfonyl)benzamide] |
| 4000 | COc1cc(C(=O)NS(C)(=O)=O)ccc1Oc1ccc(Cl)c(C(F)(F)F)c1 [Example 59, 4-[4-chloro-3-(trifluoromethyl)phenoxy]-3-methoxy-N-(methylsulfonyl)benzamide] |
| 1200 | CS(=O)(=O)NC(=O)c1ccc(Oc2ccccc2F)c(Cl)c1 [Example 282, 3-chloro-4-(2-fluorophenoxy)-N-(methylsulfonyl)benzamide] |
| 520 | CS(=O)(=O)NC(=O)c1cc(F)c(Oc2ccc(Cl)c(OC(F)F)c2)cc1F [Example 49, 4-[4-chloro-3-(difluoromethoxy)phenoxy]-2,5-difluoro-N-(methylsulfonyl)benzamide] |
| 2000 | CS(=O)(=O)NC(=O)c1ccc(Oc2ccc(Cl)c(C(F)(F)F)c2)c(Cl)c1 [Example 44, 3-chloro-4-[4-chloro-3-(trifluoromethyl)phenoxy]-N-(methylsulfonyl)benzamide] |
| > 3000 | Cc1ccc(Cl)cc1Oc1cc(F)c(C(=O)NS(C)(=O)=O)cc1F [Example 133, 4-(5-chloro-2-methylphenoxy)-2,5-difluoro-N-(methylsulfonyl)benzamide] |
| 3300 | COc1c(C(=O)NS(C)(=O)=O)ccc(Oc2cccc(Cl)c2)c1F [Example 225, 4-(3-chlorophenoxy)-3-fluoro-2-methoxy-N-(methylsulfonyl)benzamide] |
| 1800 | CS(=O)(=O)NC(=O)c1ccc(Oc2ccc(Cl)c(F)c2)cc1 [Example 220, 4-(4-chloro-3-fluorophenoxy)-N-(methylsulfonyl)benzamide] |
| 11000 | CCc1cc(F)ccc1Oc1ccc(C(=O)NS(C)(=O)=O)cc1 [Example 35, 4-(2-ethyl-4-fluorophenoxy)-N-(methylsulfonyl)benzamide] |
| 430 | CCC(C)S(=O)(=O)NC(=O)c1cc(F)c(Oc2ccc(Cl)c(C(F)(F)F)c2)cc1F (stereo not drawn) [Example 58, N-(sec-butylsulfonyl)-4-[4-chloro-3-(trifluoromethyl)phenoxy]-2,5-difluorobenzamide] |
| 1600 | CS(=O)(=O)NC(=O)c1ccc(Oc2ccc(OC(F)(F)F)cc2)cc1 [Example 168, N-(methylsulfonyl)-4-[4-(trifluoromethoxy)phenoxy]benzamide] |
| > 3000 | Cn1nccc1-c1cc(Cl)ccc1Oc1ccc(C(=O)NS(C)(=O)=O)cc1C#N [Example 303, 4-[4-chloro-2-(1-methyl-1H-pyrazol-5-yl)phenoxy]-3-cyano-N-(methylsulfonyl)benzamide] |
| > 3000 | CS(=O)(=O)NC(=O)c1cc(F)c(Oc2ccc(F)cc2Cl)cc1F [Example 120, 4-(2-chloro-4-fluorophenoxy)-2,5-difluoro-N-(methylsulfonyl)benzamide] |
| 1200 | Cc1cc(Oc2cc(F)c(C(=O)NS(C)(=O)=O)cc2F)ccc1F [Example 145, 2,5-difluoro-4-(4-fluoro-3-methylphenoxy)-N-(methylsulfonyl)benzamide] |
| 370 | CCc1cc(F)ccc1Oc1cc(F)c(C(=O)NS(C)(=O)=O)cc1Cl [Example 18, 5-chloro-4-(2-ethyl-4-fluorophenoxy)-2-fluoro-N-(methylsulfonyl)benzamide] |
